Laboratory results taken from patent US20110009265A1, “Herbicidal Compositions Comprising Pyroxasulfone” (BASF SE, priority 2008, published 2011).
Where two headings read alike, the source gives them in different places.

Assays:
Format in all cases: in vivo
Avena fatua (AVEFA) = assay: greenhouse pre-emergence herbicidal activity; settings: 125 g ai/ha, read-out: observed % activity
Text: (§1) For the pre-emergence treatment, directly after sowing the active compounds, which had been suspended or emulsified in water, were applied by means of finely distributed nozzles. The containers were irrigated gently to promote germination and growth and subsequently covered with transparent plastic hoods until plant had rooted. This cover caused uniform germination of the tests plants, unless this was adversely affected by active compounds.
(§2) The respective herbicides A and/or safener were formulated as 10% by weight strength suspension concentrate and introduced to the spray liquor with the amount of solvent system used for applying the active compound. Herbicide B and/or safener were used as commercially available formulations and introduced to the spray liquor with the amount of solvent system used for applying the active compound. In the examples, the solvent used was water.
(§3) Pendimethalin was used as a commercial aqueous suspension concentrate having an active ingredient concentration of 400 g/l.
(§4) The test period extended over 21 days. During this time, the plants were tended, and their response to the treatments with active compound was evaluated.
(§5) The evaluation for the damage caused by the chemical compositions was carried out using a scale from 0 to 100%, compared to the untreated control plants. Here, 0 means no damage and 100 means complete destruction of the plants.
(§6) The value E, which is to be expected if the activity of the individual compounds is just additive, was calculated using the method of S. R. Colby (1967) “Calculating synergistic and antagonistic responses of herbicide combinations”, Weeds 15, p. 22 ff.
(§7) where • X=effect in percent using herbicide A at an application rate a; • Y=effect in percent using herbicide B at an application rate b; • E=expected effect (in %) of A+B at application rates a+b.
(§8) If the value observed in this manner is higher than the value E calculated according to Colby, a synergistic effect is present.

Bromus inermis (BROIN) = assay: greenhouse pre-emergence herbicidal activity; settings: read-out: observed % activity; for inhibition at 125 g/ha: 125 g ai/ha; for inhibition at 250 g/ha: 250 g ai/ha
Text: as §1, §2, §3, §4, §5, §6, §7, §8

[1] = test system: Capsella bursa-pastoris (CAPBP); assay: greenhouse pre-emergence herbicidal activity; settings: 500 g ai/ha, read-out: observed % activity
Text: as §1, §2, §3, §4, §5, §6, §7, §8

Galium aparine (GALAP) = assay: greenhouse pre-emergence herbicidal activity; settings: read-out: observed % activity; for inhibition at 125 g/ha: 125 g ai/ha; for inhibition at 250 g/ha: 250 g ai/ha
Text: as §1, §2, §3, §4, §5, §6, §7, §8

[2] = test system: Phalaris canariensis (PHACA); assay: greenhouse pre-emergence herbicidal activity; settings: read-out: observed % activity; for inhibition at 125 g/ha: 125 g ai/ha; for inhibition at 250 g/ha: 250 g ai/ha
Text: as §1, §2, §3, §4, §5, §6, §7, §8

Thlaspi arvense (THLAR) [3] = assay: greenhouse pre-emergence herbicidal activity; settings: 125 g ai/ha, read-out: observed % activity
Text: as §1, §2, §3, §4, §5, §6, §7, §8

Veronica persica (VERPE) = assay: greenhouse pre-emergence herbicidal activity; settings: read-out: observed % activity; for inhibition at 250 g/ha: 250 g ai/ha; for inhibition at 500 g/ha: 500 g ai/ha; for inhibition at 1000 g/ha: 1000 g ai/ha
Text: as §1, §2, §3, §4, §5, §6, §7, §8

[4] = test system: Alopecurus myosuroides (ALOMY); assay: greenhouse post-emergence herbicidal activity; settings: 250 g ai/ha; for inhibition at 250 g/ha: Alopecurus myosuroides, read-out: observed % activity
Text: (§9) For the post-emergence treatment, the test plants were first grown to a height of 3 to 20 cm, depending on the plant habit, and only then treated. Here, the herbicidal compositions were suspended or emulsified in water as distribution medium and sprayed using finely distributing nozzles.
as §2, §3, §4, §5, §6, §7, §8

[5] = test system: Amaranthus retroflexus (AMARE); assay: greenhouse post-emergence herbicidal activity; settings: 500 g ai/ha, 20 DAT
Text: as §9, §2, §3, §4, §5, §6, §7, §8

[6] = test system: Apera spica-venti (APESV); assay: greenhouse post-emergence herbicidal activity; settings: 500 g ai/ha, 20 DAT
Text: as §9, §2, §3, §4, §5, §6, §7, §8

[7] = test system: Capsella bursa-pastoris (CAPBP); assay: greenhouse post-emergence herbicidal activity; settings: 1000 g ai/ha, 20 DAT
Text: as §9, §2, §3, §4, §5, §6, §7, §8

Lamium purpureum (LAMPU) = assay: greenhouse post-emergence herbicidal activity; settings: 500 g ai/ha, 20 DAT
Text: as §9, §2, §3, §4, §5, §6, §7, §8

[8] = test system: Matricaria inermis (MATIN); assay: greenhouse post-emergence herbicidal activity; settings: 250 g ai/ha, read-out: observed % activity
Text: as §9, §2, §3, §4, §5, §6, §7, §8

Stellaria media (STEME) = assay: greenhouse post-emergence herbicidal activity; settings: 20 DAT
Text: as §9, §2, §3, §4, §5, §6, §7, §8

Thlaspi arvense (THLAR) [9] = assay: greenhouse post-emergence herbicidal activity; settings: for inhibition at 250 g/ha: Thlaspi arvense, read-out: observed % activity
Text: as §9, §2, §3, §4, §5, §6, §7, §8

Viola arvensis (VIOAR) = assay: greenhouse post-emergence herbicidal activity; settings: 500 g ai/ha, 20 DAT
Text: as §9, §2, §3, §4, §5, §6, §7, §8

SMILES: CCC(CC)Nc1c([N+](=O)[O-])cc(C)c(C)c1[N+](=O)[O-] [pendimethalin]
- inhibition at 125 g/ha (Avena fatua (AVEFA); 192 h, 8 DAT): 0%
- inhibition at 125 g/ha (Avena fatua (AVEFA); 480 h, 20 DAT): 0%
- inhibition at 125 g/ha (Bromus inermis (BROIN); 192 h, 8 DAT): 20%
- inhibition at 250 g/ha (Bromus inermis (BROIN); 192 h, 8 DAT): 20%
- inhibition at 125 g/ha (Bromus inermis (BROIN); 480 h, 20 DAT): 0%
- inhibition at 250 g/ha (Bromus inermis (BROIN); 480 h, 20 DAT): 0%
- inhibition at 500 g/ha ([1]; 192 h, 8 DAT): 50%
- inhibition at 500 g/ha ([1]; 480 h, 20 DAT): 85%
- inhibition at 125 g/ha (Galium aparine (GALAP); 192 h, 8 DAT): 0%
- inhibition at 250 g/ha (Galium aparine (GALAP); 192 h, 8 DAT): 0%
- inhibition at 125 g/ha (Galium aparine (GALAP); 480 h, 20 DAT): 0%
- inhibition at 250 g/ha (Galium aparine (GALAP); 480 h, 20 DAT): 0%
- inhibition at 125 g/ha ([2]; 192 h, 8 DAT): 0%
- inhibition at 250 g/ha ([2]; 192 h, 8 DAT): 30%
- inhibition at 125 g/ha ([2]; 480 h, 20 DAT): 0%
- inhibition at 250 g/ha ([2]; 480 h, 20 DAT): 0%
- inhibition at 125 g/ha (Thlaspi arvense (THLAR) [3]; 192 h, 8 DAT): 0%
- inhibition at 125 g/ha (Thlaspi arvense (THLAR) [3]; 480 h, 20 DAT): 20%
- inhibition at 250 g/ha (Veronica persica (VERPE); 192 h, 8 DAT): 65%
- inhibition at 500 g/ha (Veronica persica (VERPE); 192 h, 8 DAT): 65%
- inhibition at 1000 g/ha (Veronica persica (VERPE); 192 h, 8 DAT): 70%
- inhibition at 250 g/ha (Veronica persica (VERPE); 480 h, 20 DAT): 85%
- inhibition at 500 g/ha (Veronica persica (VERPE); 480 h, 20 DAT): 85%
- inhibition at 1000 g/ha (Veronica persica (VERPE); 480 h, 20 DAT): 90%
- observed activity in % destruction 20 days after treatment ([4]; 20 DAT): 45%
- inhibition at 250 g/ha ([4]; 168 h, 7 DAT): 35%
- inhibition at 250 g/ha ([4]; 480 h, 20 DAT): 45%
- observed activity in % destruction 20 days after treatment [5]: 80%
- observed activity in % destruction 20 days after treatment [6]: 10%
- observed activity in % destruction 20 days after treatment [7]: 95%
- observed activity in % destruction 20 days after treatment (Lamium purpureum (LAMPU)): 90%
- inhibition at 250 g/ha ([8]; 168 h, 7 DAT): 0%
- inhibition at 250 g/ha ([8]; 480 h, 20 DAT): 0%
- observed activity in % destruction 20 days after treatment (Stellaria media (STEME); 250 g ai/ha): 85%
- observed activity in % destruction 20 days after treatment (Stellaria media (STEME); 1000 g ai/ha): 90%
- observed activity in % destruction 20 days after treatment (Thlaspi arvense (THLAR) [9]; 250 g ai/ha, 20 DAT): 80%
- observed activity in % destruction 20 days after treatment (Thlaspi arvense (THLAR) [9]; 1000 g ai/ha, 20 DAT): 90%
- inhibition at 250 g/ha (Thlaspi arvense (THLAR) [9]; 168 h, 250 g ai/ha, 7 DAT): 55%
- inhibition at 250 g/ha (Thlaspi arvense (THLAR) [9]; 480 h, 250 g ai/ha, 20 DAT): 80%
- observed activity in % destruction 20 days after treatment (Viola arvensis (VIOAR)): 85%
